Laboratory results as given in US12129237B2, “Substituted diaminocarboxamide and diaminocarbonitrile pyrimidines, compositions thereof, and methods of treatment therewith” (SIGNAL PHARMACEUTICALS, LLC, priority 2011, dated 2024).

biological target: T1, JNK1 (Homo sapiens, UniProt P45983); assay: JNK1 biochemical assays (one or more of: time resolved fluorescence, Z'-LYTE Cascade, radioactive); conditions: one or more of the JNK1 biochemical assays; read-out: Act. Level (JNK1 IC50 activity level)
T1 construct: purchased Carna Biosciences
T1 sequence (P45983 whole entry): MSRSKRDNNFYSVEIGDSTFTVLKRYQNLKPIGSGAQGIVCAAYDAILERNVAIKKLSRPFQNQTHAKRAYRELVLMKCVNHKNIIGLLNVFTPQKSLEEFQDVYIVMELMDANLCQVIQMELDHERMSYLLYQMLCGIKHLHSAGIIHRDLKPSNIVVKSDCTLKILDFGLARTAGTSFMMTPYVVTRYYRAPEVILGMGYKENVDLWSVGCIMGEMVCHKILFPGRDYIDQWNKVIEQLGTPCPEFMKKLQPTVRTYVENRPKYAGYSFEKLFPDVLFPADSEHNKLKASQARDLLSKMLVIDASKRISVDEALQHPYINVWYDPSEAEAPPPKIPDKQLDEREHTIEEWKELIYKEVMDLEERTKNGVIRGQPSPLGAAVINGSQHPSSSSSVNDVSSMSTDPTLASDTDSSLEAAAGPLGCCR

SMILES | IC50
CC1(Nc2ncc(C(N)=O)c(N[C@@H]3CCC[C@H](O)C3)n2)CC1 [Example 438, 4-((1R,3S)-3-hydroxycyclohexylamino)-2-(1-methylcyclopropylamino)pyrimidine-5-carboxamide] | < 200 nM
NC(=O)c1cnc(NC2CCCC2)nc1N[C@@H]1CCC[C@H](O)C1 [Example 439, 2-(cyclopentylamino)-4-((1R,3S)-3-hydroxycyclohexylamino)pyrimidine-5-carboxamide] | < 200 nM
NC(=O)c1cnc(N[C@H]2CC[C@H](O)CC2)nc1NC12CC(C(F)(F)F)(C1)C2 [Example 440, 2-((1r,4r)-4-hydroxycyclohexylamino)-4-(3-(trifluoromethyl)bicyclo[1.1.1]pentan-1-ylamino)pyrimidine-5-carboxamide] | < 200 nM
C[C@@H]1CC[C@@H](Nc2nc(NC34CC(C(F)(F)F)(C3)C4)ncc2C(N)=O)C[C@H]1O [Example 441, 4-((1R,3R,4R)-3-hydroxy-4-methylcyclohexylamino)-2-(3-(trifluoromethyl)bicyclo[1.1.1]pentan-1-ylamino)pyrimidine-5-carboxamide] | < 200 nM
CC12CC(Nc3nc(N[C@H]4CC[C@H](OC5CC5)CC4)ncc3C(N)=O)(C1)C2 [Example 442, 2-((1r,4r)-4-cyclopropoxycyclohexylamino)-4-(3-methylbicyclo[1.1.1]pentan-1-ylamino)pyrimidine-5-carboxamide] | < 200 nM
CCO[C@H]1CC[C@H](Nc2ncc(C(N)=O)c(NC34CC(C)(C3)C4)n2)CC1 [Example 443, 2-((1r,4r)-4-ethoxycyclohexylamino)-4-(3-methylbicyclo[1.1.1]pentan-1-ylamino)pyrimidine-5-carboxamide] | < 200 nM
C[C@@H]1CC[C@@H](Nc2nc(NC3CC(F)(F)C3)ncc2C(N)=O)C[C@H]1O [Example 444, 2-(3,3-difluorocyclobutylamino)-4-((1R,3R,4R)-3-hydroxy-4-methylcyclohexylamino)pyrimidine-5-carboxamide] | < 200 nM
CC(C)(Nc1nc(NC23CCC(O)(CC2)C3)ncc1C(N)=O)C1CC1 [Example 445, 4-(2-cyclopropylpropan-2-ylamino)-2-(4-hydroxybicyclo[2.2.1]heptan-1-ylamino)pyrimidine-5-carboxamide] | < 200 nM
CC1(Nc2nc(NC34CCC(O)(CC3)C4)ncc2C(N)=O)CCCC1 [Example 446, 2-(4-hydroxybicyclo[2.2.1]heptan-1-ylamino)-4-(1-methylcyclopentylamino)pyrimidine-5-carboxamide] | < 200 nM
NC(=O)c1cnc(NC23CCC(O)(CC2)C3)nc1NC1CCC1 [Example 447, 4-(cyclobutylamino)-2-(4-hydroxybicyclo[2.2.1]heptan-1-ylamino)pyrimidine-5-carboxamide] | < 200 nM
NC(=O)c1cnc(N[C@H]2CCCOC2)nc1NC1CCC1 [Example 448, (S)-4-(cyclobutylamino)-2-(tetrahydro-2H-pyran-3-ylamino)pyrimidine-5-carboxamide] | < 200 nM
C[C@@H](Nc1nc(NC23CCC(O)(CC2)C3)ncc1C(N)=O)C1CC1 [Example 450, (R)-4-(1-cyclopropylethylamino)-2-(4-hydroxybicyclo[2.2.1]heptan-1-ylamino)pyrimidine-5-carboxamide] | < 200 nM
CC1(Nc2nc(NC34CCC(O)(CC3)C4)ncc2C(N)=O)CCC1 [Example 451, 2-(4-hydroxybicyclo[2.2.1]heptan-1-ylamino)-4-(1-methylcyclobutylamino)pyrimidine-5-carboxamide] | < 200 nM
CCC(C)(C)Nc1nc(NC23CCC(O)(CC2)C3)ncc1C(N)=O [Example 452, 2-(4-hydroxybicyclo[2.2.1]heptan-1-ylamino)-4-(tert-pentylamino)pyrimidine-5-carboxamide] | < 200 nM
NC(=O)c1cnc(N[C@H]2CC[C@H](O)CC2)nc1NC1C2CC1C2 (some centres unmarked) [Example 453, 4-(bicyclo[1.1.1]pentan-2-ylamino)-2-((1r,4r)-4-hydroxycyclohexylamino)pyrimidine-5-carboxamide] | < 200 nM
CCC1(Nc2nc(N[C@H]3CC[C@H](OC)CC3)ncc2C(N)=O)CCCC1 [Example 454, 4-(1-ethylcyclopentylamino)-2-((1r,4r)-4-methoxycyclohexylamino)pyrimidine-5-carboxamide] | < 200 nM
CCC1(Nc2nc(N[C@H]3CC[C@H](O)CC3)ncc2C(N)=O)CCCC1 [Example 455, 4-(1-ethylcyclopentylamino)-2-((1r,4r)-4-hydroxycyclohexylamino)pyrimidine-5-carboxamide] | < 200 nM
CC(C)(Nc1nc(N[C@H]2CCC[C@H](O)C2)ncc1C(N)=O)C1CC1 [Example 456, 4-(2-cyclopropylpropan-2-ylamino)-2-((1S,3S)-3-hydroxycyclohexylamino)pyrimidine-5-carboxamide] | < 200 nM
CC(C)(Nc1nc(N[C@H]2CCC[C@@H](O)C2)ncc1C(N)=O)C1CC1 [Example 457, 4-(2-cyclopropylpropan-2-ylamino)-2-((1S,3R)-3-hydroxycyclohexylamino)pyrimidine-5-carboxamide] | < 200 nM

SMILES | IC50
NC(=O)c1cnc(N[C@]23CC[C@@](O)(CC2)C3)nc1NC12CC(C1)C2 [Example 458, 4-(bicyclo[1.1.1]pentan-1-ylamino)-2-((1r,4r)-4-hydroxybicyclo[2.2.1]heptan-1-ylamino)pyrimidine-5-carboxamide] | < 200 nM
C[C@@H]1CC[C@@H](Nc2nc(N[C@H](C)C3CCC3)ncc2C(N)=O)C[C@H]1O [Example 459, 2-((R)-1-cyclobutylethylamino)-4-((1R,3R,4R)-3-hydroxy-4-methylcyclohexylamino)pyrimidine-5-carboxamide] | < 200 nM
C[C@H](Nc1ncc(C(N)=O)c(N[C@@H]2CC[C@@H](C)[C@H](O)C2)n1)C1CCC1 [Example 460, 2-((S)-1-cyclobutylethylamino)-4-((1R,3R,4R)-3-hydroxy-4-methylcyclohexylamino)pyrimidine-5-carboxamide] | < 200 nM
C[C@@H]1CC[C@@H](Nc2nc(N[C@H](C)C(C)(C)C)ncc2C(N)=O)C[C@H]1O [Example 461, 2-((R)-3,3-dimethylbutan-2-ylamino)-4-((1R,3R,4R)-3-hydroxy-4-methylcyclohexylamino)pyrimidine-5-carboxamide] | < 200 nM
CCO[C@H]1CC[C@H](Nc2ncc(C(N)=O)c(NC34CCC(C3)C4)n2)CC1 [Example 462, 4-(bicyclo[2.1.1]hexan-1-ylamino)-2-((1r,4r)-4-ethoxycyclohexylamino)pyrimidine-5-carboxamide] | < 200 nM
CCC1(Nc2nc(N[C@H]3CC[C@H](OC4CC4)CC3)ncc2C(N)=O)CCCC1 [Example 463, 2-((1r,4r)-4-cyclopropoxycyclohexylamino)-4-(1-ethylcyclopentylamino)pyrimidine-5-carboxamide] | < 200 nM
CCO[C@H]1CC[C@H](Nc2ncc(C(N)=O)c(NC3(CC)CCCC3)n2)CC1 [Example 464, 2-((1r,4r)-4-ethoxycyclohexylamino)-4-(1-ethylcyclopentylamino)pyrimidine-5-carboxamide] | < 200 nM
CC(C)(Nc1nc(N[C@@H]2CCC[C@@H](O)C2)ncc1C(N)=O)C1CC1 [Example 465, 4-(2-cyclopropylpropan-2-ylamino)-2-((1R,3R)-3-hydroxycyclohexylamino)pyrimidine-5-carboxamide] | < 200 nM
CC(C)(Nc1nc(N[C@@H]2CCC[C@H](O)C2)ncc1C(N)=O)C1CC1 [Example 466, 4-(2-cyclopropylpropan-2-ylamino)-2-((1R,3S)-3-hydroxycyclohexylamino)pyrimidine-5-carboxamide] | < 200 nM
CC(C)(Nc1nc(NC2CCOCC2)ncc1C(N)=O)C1CC1 [Example 467, 4-(2-cyclopropylpropan-2-ylamino)-2-(tetrahydro-2H-pyran-4-ylamino)pyrimidine-5-carboxamide] | < 200 nM
CC(C)(Nc1nc(N[C@H]2CCCOC2)ncc1C(N)=O)C1CC1 [Example 468, (S)-4-(2-cyclopropylpropan-2-ylamino)-2-(tetrahydro-2H-pyran-3-ylamino)pyrimidine-5-carboxamide] | < 200 nM
C[C@@H]1CC[C@@H](Nc2nc(N[C@@H](C)C(C)(C)C)ncc2C(N)=O)C[C@H]1O [Example 469, 2-((S)-3,3-dimethylbutan-2-ylamino)-4-((1R,3R,4R)-3-hydroxy-4-methylcyclohexylamino)pyrimidine-5-carboxamide] | < 200 nM
CC(C)[C@@H](C)Nc1ncc(C(N)=O)c(N[C@@H]2CC[C@@H](C)[C@H](O)C2)n1 [Example 470, 4-((1R,3R,4R)-3-hydroxy-4-methylcyclohexylamino)-2-((R)-3-methylbutan-2-ylamino)pyrimidine-5-carboxamide] | < 200 nM
CC(C)[C@H](C)Nc1ncc(C(N)=O)c(N[C@@H]2CC[C@@H](C)[C@H](O)C2)n1 [Example 471, 4-((1R,3R,4R)-3-hydroxy-4-methylcyclohexylamino)-2-((S)-3-methylbutan-2-ylamino)pyrimidine-5-carboxamide] | < 200 nM
C[C@@H]1CC[C@@H](Nc2nc(NCC3CC3)ncc2C(N)=O)C[C@H]1O [Example 472, 2-(cyclopropylmethylamino)-4-((1R,3R,4R)-3-hydroxy-4-methylcyclohexylamino)pyrimidine-5-carboxamide] | < 200 nM
CO[C@H]1CC[C@H](Nc2ncc(C(N)=O)c(NC3(C)CCCC3)n2)CC1 [Example 473] | < 200 nM
C[C@@H]1CC[C@@H](Nc2nc(NC3(C4CC4)CC3)ncc2C(N)=O)C[C@H]1O [Example 474, 2-(bi(cycloprop)ylamino)-4-((1R,3R,4R)-3-hydroxy-4-methylcyclohexylamino)pyrimidine-5-carboxamide] | < 200 nM
C[C@@H]1CC[C@@H](Nc2nc(NC3(C)CCCC3)ncc2C(N)=O)C[C@H]1O [Example 475, 4-((1R,3R,4R)-3-hydroxy-4-methylcyclohexylamino)-2-(1-methylcyclopentylamino)pyrimidine-5-carboxamide] | < 200 nM
CCO[C@H]1CC[C@H](Nc2ncc(C(N)=O)c(NC3C4CC3C4)n2)CC1 (some centres unmarked) [Example 476, 4-(bicyclo[1.1.1]pentan-2-ylamino)-2-((1r,4r)-4-ethoxycyclohexylamino)pyrimidine-5-carboxamide] | < 200 nM
